# Measured values published in patent US20250179049A1, “SALTS OF HETEROCYCLIC INHIBITORS OF MONOCARBOXYLATE TRANSPORTER 4 FOR THE TREATMENT OF DISEASE” (Vettore, LLC, priority 2022, published 2025).
# Counter-ions that a name gives are not always drawn.
# Legend:
# [1] = system: bleomycin-induced lung fibrosis; experiment: Bleomycin-induced lung fibrosis model; type: in vivo, mice; settings: therapeutic mode; Compound 1 3 mg/kg BID; pirfenidone 100 mg/kg BID; nintedanib 50 mg/kg QD, oral gavage
# Procedure: The reduction of lung fibrosis upon MCT4 inhibition is coupled with changes in serum metabolites that indicates turnover of extracellular matrix protein and increased fatty acid oxidation. […] The effects of Compound 1, alone or in combination with approved IPF drugs pirfenidone or nintedanib, were studied in the bleomycin-induced lung fibrosis model in therapeutic mode. Compound 1 was dosed at 3 mg/kg, BID; pirfenidone was dosed at 100 mg/kg, BID; and nintedanib was dosed at 50 mg/kg, QD, all via oral gavage.
# [2] = Kinetic solubility in biorelevant media; type: physicochemical; settings: for solubility at 1 h / solubility at 4 h / solubility at 24 h: thermodynamic from solid; for solubility at 1 h: t = 1 hour; for solubility at 4 h: t = 4 hours; for solubility at 24 h: t = 24 hours
# [3] = Solid-state stability of API, 2 weeks storage; type: physicochemical
# Procedure: Stability of the solid API was assessed after storage at the following conditions for 2 weeks: • 25° C./58% RH (closed) • 25° C./58% RH (open) • 40° C./75% RH (closed) • 40° C./75% RH (open) • 80° C./ambient RH (closed)
# [4] = Dynamic vapor sorption (DVS); type: physicochemical; settings: 25° C.
# Excerpt: The Form B tris salt is an off-white crystalline powder consisting of small particles. […] (ΔH=111 J/g).
# [5] = fasted-state simulated gastric fluid (FaSSGF), fassgf or other biorelevant, FaSSGF pH 1.6, room temperature
# [6] = fasted-state simulated intestinal fluid (FaSSIF), FaSSIF #2 pH 6.5, room temperature
# [7] = fed-state simulated intestinal fluid (FeSSIF), FeSSIF #2 pH 5.8, room temperature
smiles,measurement,setting,value
"COC(=O)c1ccc2c(c1)NC(=O)/C2=C(\Nc1ccc(N(C)C(=O)CN2CCN(C)CC2)cc1)c1ccccc1 [nintedanib, reference compound]",Additive effect upon Ashcroft Score or αSMA quantitation when added to Compound 1,[1],did not produce a statistically significant additive effect
"Cc1ccc(=O)n(-c2ccccc2)c1 [pirfenidone, reference compound]",Additive effect upon Ashcroft Score or αSMA quantitation when added to Compound 1,[1],did not produce a statistically significant additive effect
CC(C)(OCc1cc(-c2cccc(OC3CCC3)c2)n(-c2ccccc2N2CCC2)n1)C(=O)O [tris salt Form B],Solubility description,"[2]; FaSSGF after 1, 4 and 24 hours",practically insoluble
same,solubility at 1 h,[2]; [5],0.46 µg/mL
same,solubility at 4 h,[2]; [5],0.35 µg/mL
same,solubility at 24 h,[2]; [5],0.39 µg/mL
same,solubility,"[2]; fasted-state simulated intestinal fluid (FaSSIF), pH 6.5, thermodynamic from solid, FaSSIF, before gradual decrease, read-out: Solubility, initial",≥ 3000 µg/mL
same,solubility at 1 h,[2]; [6],1110 µg/mL
same,solubility at 4 h,[2]; [6],851 µg/mL
same,solubility at 24 h,[2]; [6],733 µg/mL
same,solubility kinetic,"[2]; fed-state simulated intestinal fluid (FeSSIF), pH 5.8, thermodynamic from solid, FeSSIF, before precipitation, read-out: Kinetic solubility, initially in solution",≥ 3000 µg/mL
same,solubility at 1 h,[2]; [7],99 µg/mL
same,solubility at 4 h,[2]; [7],96 µg/mL
same,solubility at 24 h,[2]; [7],95 µg/mL
same,Content,"[3]; 25° C. - 58% RH (c), 2 weeks",101.1 % w/w
same,Impurity RRT 0.60,"[3]; 25° C. - 58% RH (c), 2 weeks",<0.05 % area
same,Impurity RRT 0.86,"[3]; 25° C. - 58% RH (c), 2 weeks",<0.05 % area
same,Impurity RRT 0.89,"[3]; 25° C. - 58% RH (c), 2 weeks",<0.05 % area
same,Impurity RRT 0.92,"[3]; 25° C. - 58% RH (c), 2 weeks",0.13 % area
same,Impurity RRT 1.21,"[3]; 25° C. - 58% RH (c), 2 weeks",<0.05 % area
same,Main Peak,"[3]; 25° C. - 58% RH (c), 2 weeks",99.78 % Area
same,Total Impurities,"[3]; 25° C. - 58% RH (c), 2 weeks",0.22 % area
same,XRPD,"[3]; 25° C. - 58% RH (c), 2 weeks",Consistent with Tris salt (Grp B)
same,Content,"[3]; 25° C. - 58% RH (o), 2 weeks",101.0 % w/w
same,Impurity RRT 0.60,"[3]; 25° C. - 58% RH (o), 2 weeks",<0.05 % area
same,Impurity RRT 0.86,"[3]; 25° C. - 58% RH (o), 2 weeks",<0.05 % area
same,Impurity RRT 0.89,"[3]; 25° C. - 58% RH (o), 2 weeks",<0.05 % area
same,Impurity RRT 0.92,"[3]; 25° C. - 58% RH (o), 2 weeks",0.13 % area
same,Impurity RRT 1.21,"[3]; 25° C. - 58% RH (o), 2 weeks",<0.05 % area
same,Main Peak,"[3]; 25° C. - 58% RH (o), 2 weeks",99.78 % Area
same,Total Impurities,"[3]; 25° C. - 58% RH (o), 2 weeks",0.22 % area
same,XRPD,"[3]; 25° C. - 58% RH (o), 2 weeks",Consistent with Tris salt (Grp B)
same,Chemical or physical changes on storage,"[3]; 25° C./58% RH, 40° C./75% RH (closed and open), 80° C./ambient RH (closed), 2 weeks",No significant chemical or physical changes were observed
same,Content,"[3]; 40° C. - 75% RH (c), 2 weeks",101.3 % w/w
same,Impurity RRT 0.60,"[3]; 40° C. - 75% RH (c), 2 weeks",<0.05 % area
same,Impurity RRT 0.86,"[3]; 40° C. - 75% RH (c), 2 weeks",<0.05 % area
same,Impurity RRT 0.89,"[3]; 40° C. - 75% RH (c), 2 weeks",<0.05 % area
same,Impurity RRT 0.92,"[3]; 40° C. - 75% RH (c), 2 weeks",0.13 % area
same,Impurity RRT 1.21,"[3]; 40° C. - 75% RH (c), 2 weeks",<0.05 % area
same,Main Peak,"[3]; 40° C. - 75% RH (c), 2 weeks",99.75 % Area
same,Total Impurities,"[3]; 40° C. - 75% RH (c), 2 weeks",0.25 % area
same,XRPD,"[3]; 40° C. - 75% RH (c), 2 weeks",Consistent with Tris salt (Grp B)
same,Content,"[3]; 40° C. - 75% RH (o), 2 weeks",101.1 % w/w
same,Impurity RRT 0.60,"[3]; 40° C. - 75% RH (o), 2 weeks",<0.05 % area
same,Impurity RRT 0.86,"[3]; 40° C. - 75% RH (o), 2 weeks",<0.05 % area
same,Impurity RRT 0.89,"[3]; 40° C. - 75% RH (o), 2 weeks",<0.05 % area
same,Impurity RRT 0.92,"[3]; 40° C. - 75% RH (o), 2 weeks",0.13 % area
same,Impurity RRT 1.21,"[3]; 40° C. - 75% RH (o), 2 weeks",<0.05 % area
same,Main Peak,"[3]; 40° C. - 75% RH (o), 2 weeks",99.77 % Area
same,Total Impurities,"[3]; 40° C. - 75% RH (o), 2 weeks",0.23 % area
same,XRPD,"[3]; 40° C. - 75% RH (o), 2 weeks",Consistent with Tris salt (Grp B)
same,Content,"[3]; 80° C. (c), 2 weeks",101.0 % w/w
same,Impurity RRT 0.60,"[3]; 80° C. (c), 2 weeks",<0.05 % area
same,Impurity RRT 0.86,"[3]; 80° C. (c), 2 weeks",<0.05 % area
same,Impurity RRT 0.89,"[3]; 80° C. (c), 2 weeks",<0.05 % area
same,Impurity RRT 0.92,"[3]; 80° C. (c), 2 weeks",0.13 % area
same,Impurity RRT 1.21,"[3]; 80° C. (c), 2 weeks",<0.05 % area
same,Main Peak,"[3]; 80° C. (c), 2 weeks",99.75 % Area
same,Total Impurities,"[3]; 80° C. (c), 2 weeks",0.25 % area
same,XRPD,"[3]; 80° C. (c), 2 weeks",Consistent with Tris salt (Grp B)
same,Content,[3]; Initial,101.2 % w/w
same,Impurity RRT 0.60,[3]; Initial,<0.05 % area
same,Impurity RRT 0.86,[3]; Initial,<0.05 % area
same,Impurity RRT 0.89,[3]; Initial,<0.05 % area
same,Impurity RRT 0.92,[3]; Initial,0.13 % area
same,Impurity RRT 1.21,[3]; Initial,<0.05 % area
same,Main Peak,[3]; Initial,99.81 % Area
same,Total Impurities,[3]; Initial,0.19 % area
same,XRPD,[3]; Initial,Consistent with Tris salt (Grp B)
same,Hygroscopicity,[4]; 5 to 95% RH,non-hygroscopic
same,Weight change,[4]; between 5 and 95% RH,approximately 0.1%
